In patent US6355428B1, “Nucleic acid ligand interaction assays” (Genelabs Technologies, Inc., priority 1998, dated 2002):

Assays:
[1] = test system: GCGGTATTT (mixed) DNA duplex (SEQ ID NO: 12); experiment: SPA direct binding assay, mixed sequence indicator duplex
Description: (§1) This technology can be applied to studies of ligand binding as disclosed herein. Example 13, below, describes the use of the assay in a high throughput screening method, using the SPA detection system. In this example, the first oligonucleotide is labeled with biotin, and is then tightly bound to streptavidin-coated SPA beads via the strong biotin/streptavidin interaction. These beads are impregnated with scintillant. The second oligonucleotide is labeled with a weak β-emitter, such as ^3H or ^33P. The radioactive second oligonucleotide is mixed with a solution of the beads under conditions at which the first and second oligonucleotides exist primarily as single strands, as described above. The signal will thus be low, as the oligonucleotides are non-hybridized. When ligand is added, the duplex form is stabilized, and the increased proximity of the radioactive isotope (e.g., ^3H, ^33P) in the second oligonucleotide causes the bead to which the first oligonucleotide is bound to scintillate. A signal thus indicates the presence of an effective binding ligand molecule; test sequences giving higher signals indicate the relative preference for different sequences.
The data in Table II compare raw signal counts from SPA assays using three different oligonucleotides and three concentrations (0, 100, and 500 nM) of the DNA binding drug distamycin. The oligonucleotides used were G/C-rich (CCGCGCC; SEQ ID NO: 6), A/T-rich (CTTTATTATTTT; SEQ ID NO: 2), or mixed sequence (GCGGTATTT; SEQ ID NO: 12) DNA duplexes. One strand of the duplex was synthesized with a 5′-biotin label, the other strand was labeled with ^33P, as described in Example 13.
Indicator oligonucleotides as shown in Table 1 were used in this assay, as shown in Table II and FIGS. 4A-E. One strand of each duplex was labeled with biotin at the 5′-end, and the complementary strand was 3′-labeled with ^33P. […] In the absence of ligand, and under these conditions, the oligonucleotides exist in single-stranded conformation. As a result, the oligonucleotide containing the radioactive label is not in close proximity to the SPA bead, and the light given off by the beads is low, i.e., at background. As a duplex-stabilizing ligand is added, the radioactive ^33P is brought into close proximity to the SPA bead, and the light emitted from the SPA bead increases. Accordingly, each of five known DNA-binding compounds was added in increasing concentrations, and the effect on scintillation count was observed, giving the results shown in FIGS. 4A-E.

[2] = test system: indicator oligo SEQ ID NO: 12 (mixed sequence) versus unlabeled competitor dsDNA; experiment: ECL competitive assay with 12-base duplex competitor oligos; format: binding; details: competitor having only one A/T base pair; 0.008 to 8.33 μM competitor
Experimental: Three 12-base duplex competitor oligos, containing 1-, 5-, and 8-base stretches of A/T's flanked by G/C sequences, were tested as competitors, using distamycin as the binding ligand and SEQ ID NO: 12 (mixed sequence) as the indicator oligo. The indicator pair was labeled with a 5′ ruthenium chelate on one strand and a 3′biotin on the complementary strand, as described above and in Example 14.
Distamycin was premixed at […] with 0.25 nM indicator oligo. The assay was conducted as described in Example 14, using the Igen Origen® apparatus. Ligand binding, which stabilizes the duplexed form of the indicator DNA, results in an increase in the ECL signal. Unlabeled competitor dsDNA (no ruthenium or biotin label) was then added at concentrations ranging from 0.008 to 8.33 μM, and the decrease in the signal was monitored, as shown in FIG. 13.
An indicator pair of oligonucleotides, having the sequence SEQ ID NO: 12 and complement, were labeled with a 5′ ruthenium (bipy) chelate on one strand, as described in U.S. Pat. No. 5,635,347 and references cited therein, and with a 3′ biotin on the complementary strand. […] The biotinylated strand of DNA was captured on the bead surface, and any ruthenium captured by the streptavidin via drug-stabilized hybridization of the indicator duplex was quantified with the IGEN Origen™ analyzer. […]

[3] = test system: A/T rich, G/C rich and mixed sequence DNA oligonucleotides; experiment: SPA direct binding assay, sequence preference over panel of indicator oligonucleotides
Description: as §1, with “Example 13, below, describes the use of the assay in a high throughput screening method, using the SPA detection system. In this example, the first oligonucleotide is labeled with biotin, and is then tightly bound to streptavidin-coated SPA beads via the strong biotin/streptavidin interaction.” left out
Indicator oligonucleotides as shown in Table 1 were used in this assay, as shown in Table II and FIGS. 4A-E. One strand of each duplex was labeled with biotin at the 5′-end, and the complementary strand was 3′-labeled with ^33P. The two complementary strands were incubated with streptavidin-coated SPA beads (Amersham, Arlington Heights, Ill.) at room temperature in a buffer containing 20 mM HEPES, pH 7.5, 0.1 mM EDTA, and 20 mM NaCl. In the absence of ligand, and under these conditions, the oligonucleotides exist in single-stranded conformation. As a result, the oligonucleotide containing the radioactive label is not in close proximity to the SPA bead, and the light given off by the beads is low, i.e., at background. As a duplex-stabilizing ligand is added, the radioactive ^33P is brought into close proximity to the SPA bead, and the light emitted from the SPA bead increases.

Cn1cc(NC(=O)c2cc(NC(=O)c3cc(NC=O)cn3C)cn2C)cc1C(=O)NCCC(=N)N [Distamycin, distamycin]
CPM ([1]; 100 nM Distamycin, 10 mM Na+): 597 CPM | CPM ([1]; 100 nM Distamycin, 50 mM Na+): 868 CPM | CPM ([1]; 500 nM Distamycin, 10 mM Na+): 1951 CPM | CPM ([1]; 500 nM Distamycin, 50 mM Na+): 2234 CPM | competition by competitor oligonucleotide (FIG. 13) [2]: little competition was observed | sequence preference of binding (FIGS. 4A-E) ([3]; A/T rich 5′-AAAATAATAAAG, G/C rich 5′-GGCGCGG, mixed 5′-GTTGCAGATC, increasing drug): preference for A/T-rich and mixed sequences | duplex stabilization preference (Table II) ([3]; G/C-rich SEQ 6, A/T-rich SEQ 2, mixed SEQ 12 duplexes, 0, 100, 500 nM drug): preferentially stabilizes the A/T-rich duplex and the mixed duplex
